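Cultured in 96-well plates, cells were exposed to test compound for 48 hours across five concentrations. The concentration for 50% growth inhibition is given as GI50.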 Calls of active or inactive are those of the source. Rule as the data show it: active = GI50 up to about 1.1 µM and inactive = higher.
Experiments:
Assay in all cases: inhibition of tumour cell growth, NCI panel, 48 h
[1] = test system: Malme-3M
[2] = test system: HOP-62
[3] = test system: A498
[4] = test system: MCF7
[5] = test system: MOLT-4
[6] = test system: SW-620
[7] = test system: RXF 393
[8] = test system: SK-MEL-28
[9] = test system: NCI-H522
[10] = test system: IGROV-1
[11] = test system: CAKI-1
[12] = test system: SF-539
[13] = test system: SK-OV-3
[14] = test system: HCC 2998
[15] = test system: SNB-75
[16] = test system: COLO 205
[17] = test system: OVCAR-3
[18] = test system: NCI-H226
[19] = test system: KM12
[20] = test system: Hs-578T

Measured: GI50

C=CC(O)(CBr)CCC(Br)C(=C)C (centres undefined)
inactive: [1] > 10 µM | [2] > 10 µM | [3] > 10 µM | [4] > 10 µM | [5] > 10 µM | [6] > 10 µM | [7] > 10 µM | [8] > 10 µM | [9] > 10 µM | [10] > 10 µM | [11] > 10 µM | [12] > 10 µM | [13] > 10 µM | [14] > 10 µM | [15] > 10 µM | [16] > 10 µM | [17] > 10 µM | [18] > 10 µM | [19] > 10 µM | [20] > 10 µM

O=C1Sc2ccccc2NC1=C(C(=O)c1ccccc1)C(=O)c1ccccc1
inactive: [1] 41.2 µM | [2] 8.75 µM | [3] 34.8 µM | [4] 2.44 µM | [6] 30.2 µM | [7] 47.1 µM | [8] > 100 µM | [9] 18.4 µM | [10] 38.4 µM | [11] 56.2 µM | [12] 26.5 µM | [13] 21.7 µM | [14] 19.4 µM | [15] 31.6 µM | [16] 37.4 µM | [17] 5.18 µM | [18] 19.4 µM | [19] 31.6 µM | [20] 62.5 µM

C/C1=C\CC/C(C)=C/C=C(/C(C)C)CC/C(C(=O)O)=C/CC1 [CROTOCEMBRANEIC ACID]
inactive: [1] 70.1 µM | [2] 29.6 µM | [3] 21 µM | [4] 34.2 µM | [5] 28.3 µM | [6] 42.3 µM | [7] 29.4 µM | [8] > 100 µM | [9] 38.1 µM | [10] 61.1 µM | [11] 49.9 µM | [12] 37.9 µM | [13] 35.5 µM | [14] 37.6 µM | [15] 77.3 µM | [16] 19.9 µM | [17] 22.9 µM | [18] 33 µM | [19] 42.9 µM | [20] 72.1 µM

O=c1[nH]c(=O)n(C2OC(CO)C(O)C2O)c2c1CCCC2 (centres undefined)
inactive: [1] > 100 µM | [2] > 100 µM | [3] > 100 µM | [4] > 100 µM | [5] > 100 µM | [6] > 100 µM | [7] > 100 µM | [8] > 100 µM | [9] > 100 µM | [10] > 100 µM | [11] > 100 µM | [12] > 100 µM | [13] > 100 µM | [14] > 100 µM | [15] > 100 µM | [16] > 100 µM | [17] > 100 µM | [18] > 100 µM | [19] > 100 µM | [20] > 100 µM

CC1C2CC(C(S(=O)(=O)N3CCOCC3)/C2=N\O)C1(C)C (centres undefined)
inactive: [1] > 100 µM | [2] > 100 µM | [3] > 100 µM | [4] > 100 µM | [5] > 100 µM | [6] > 100 µM | [7] > 100 µM | [8] > 100 µM | [9] > 100 µM | [10] > 100 µM | [11] > 100 µM | [12] > 100 µM | [13] > 100 µM | [14] > 100 µM | [15] > 100 µM | [16] > 100 µM | [17] > 100 µM | [18] > 100 µM | [19] > 100 µM | [20] > 100 µM

CC(C)(C)C(=O)/C=C(\OB(F)F)C(C)(C)C
inactive: [1] > 100 µM | [2] > 100 µM | [3] > 100 µM | [4] > 100 µM | [5] > 100 µM | [6] > 100 µM | [7] > 100 µM | [8] > 100 µM | [9] > 100 µM | [10] > 100 µM | [11] > 100 µM | [12] > 100 µM | [13] > 100 µM | [14] > 100 µM | [15] > 100 µM | [16] > 100 µM | [17] > 100 µM | [18] > 100 µM | [19] > 100 µM | [20] > 100 µM

Cc1cc(S(=O)(=O)/N=C(\NN)NCC(=O)NN)c(S)cc1Cl
inactive: [1] > 10 µM | [2] > 10 µM | [3] > 10 µM | [4] > 10 µM | [5] > 10 µM | [6] > 10 µM | [7] > 10 µM | [8] > 10 µM | [9] > 10 µM | [10] > 10 µM | [11] > 10 µM | [12] > 10 µM | [13] > 10 µM | [14] 8.73 µM | [15] > 10 µM | [16] > 10 µM | [17] > 10 µM | [18] > 10 µM | [19] > 10 µM | [20] > 10 µM

C=C(COCO)C(C)=O
inactive: [1] 9.73 µM | [2] > 47.1 µM | [3] 27.9 µM | [4] 16.3 µM | [5] 2.66 µM | [6] 3.3 µM | [7] 14.3 µM | [8] 16.8 µM | [9] 2.14 µM | [10] 20.1 µM | [11] 2.5 µM | [12] 6.24 µM | [13] 48.9 µM | [14] 27.9 µM | [15] 16.3 µM | [16] 7.52 µM | [17] 11.6 µM | [18] > 61 µM | [19] > 40.3 µM | [20] 23.9 µM

C=CCNC(=O)CN(CC(=O)O)C1CCCCC1N(CC(=O)O)CC(=O)O (centres undefined)
inactive: [1] > 100 µM | [2] > 100 µM | [3] > 100 µM | [4] > 100 µM | [5] > 100 µM | [6] > 100 µM | [7] > 100 µM | [8] > 100 µM | [9] > 100 µM | [10] > 100 µM | [11] > 100 µM | [12] > 100 µM | [13] > 100 µM | [14] > 100 µM | [15] > 100 µM | [16] > 100 µM | [17] > 100 µM | [18] > 100 µM | [19] > 100 µM | [20] > 100 µM

O=C(CCCN1CCC2(CC1)CC(c1ccccc1)OC2=O)c1ccc(F)cc1 (centres undefined)
inactive: [1] 17.8 µM | [2] 29.6 µM | [3] 24 µM | [4] 35.2 µM | [5] 28.3 µM | [6] 40.1 µM | [7] 66.2 µM | [8] 39.4 µM | [9] > 100 µM | [10] > 100 µM | [11] 24.5 µM | [12] 28.4 µM | [13] > 100 µM | [14] 23.4 µM | [15] 16.7 µM | [16] 17.3 µM | [17] 33.3 µM | [18] 53.7 µM | [19] 35 µM | [20] 40.8 µM

COc1cc(OC)c2c(c1)OC(c1cccnc1)C(c1ccccc1)C2=O (centres undefined)
inactive: [1] > 100 µM | [2] > 100 µM | [3] > 100 µM | [4] > 100 µM | [5] > 100 µM | [6] > 100 µM | [7] > 100 µM | [8] > 100 µM | [9] 72.1 µM | [10] > 100 µM | [11] 74.8 µM | [12] > 100 µM | [13] > 100 µM | [14] > 100 µM | [15] > 100 µM | [16] > 100 µM | [17] 86.3 µM | [18] > 100 µM | [19] > 100 µM | [20] 49.5 µM

CCn1c(=O)c2c3ccc(O)cc3[nH]c2c2ccc(O)cc21
inactive: [1] 95.9 µM | [2] > 100 µM | [3] > 100 µM | [4] 50.7 µM | [5] 39.1 µM | [6] > 100 µM | [7] > 100 µM | [8] > 100 µM | [9] 93.3 µM | [10] > 100 µM | [11] > 100 µM | [12] > 100 µM | [13] > 100 µM | [14] > 100 µM | [15] 66.2 µM | [16] > 100 µM | [17] > 100 µM | [18] > 100 µM | [19] > 100 µM | [20] 44.1 µM

O=C[C@@H](CO)O[C@H](C=O)n1cnc2c(=O)nc[nH]c21
inactive: [1] 301 µM | [2] 264 µM | [3] 673 µM | [4] 91.2 µM | [5] 123 µM | [6] 126 µM | [7] 239 µM | [8] 369 µM | [9] 146 µM | [10] 188 µM | [11] 319 µM | [12] 490 µM | [13] 501 µM | [14] 116 µM | [15] 667 µM | [16] 288 µM | [17] 290 µM | [18] 583 µM | [19] 335 µM | [20] 664 µM
